According to patent publication US4361573A, “α,α-Diaryl-β-(tert-amino)-propanols and diuretic pharmaceutical compositions containing them” (Temmler AG, priority 1974, dated 1982):
Where two headings read alike, the source gives them in different places.

Legend:
[1] = mice, oral; literature value; cited from earlier work
[2] = comparison of toxicity in mice: oral LD50 by the Lichtfiel & Wilcoxon method; assay type: in vivo; details: mouse, in vivo, observation period 7 days, 95% confidence limit in brackets, read-out: LD50
Description: In Table 3 the mean lethal doses for mice, administered orally (LD50 determination by the […] & WILCOXON method - J.Pharmacol. Exp. Ther. 96,98 (1949)) are compared.

[3] = saluretic efficiency test in rats: elimination of water, sodium, chloride and potassium in 6 h urine after oral dosing; assay type: in vivo; details: rats, oral; for change in vivo at 40 µmol/kg / change in vivo at 80 µmol/kg: Rattus norvegicus
Method: In order to test the saluretic efficiency of the compounds of the invention rats having a weight of 150 to 200 g were used. The animals were kept without food, but not without drinking water, for 15 hours before the beginning of the test. The test substances were administered to groups of four rats, of substantially equal weight, with a rigid stomach probe in a 1% methyl cellulose slime. The dose required per 100 g animal (unit dosage in μmol/kg body weight) was contained in one ml. Following the administration of the substance the rats were given 5 ml 0.9% sodium chloride solution per 100 g body weight p.o. and placed in a diuresis funnel after manually emptying the bladder. Urine was collected for 6 hours in an airconditioned chamber at 24°±1° C. and a relative air humidity of 50±5%. The diuretic effect of a particular dose was tested on at least two, but more frequently however on four to eight groups of rats. Two sodium chloride controls were also used for each test day.
At the end of the collecting periods the volumes of urine discharged per group were noted and the pH value and also the content of sodium, potassium (flame-photometrically) and chloride (measured argentometrically with the determination of the end point potentiometrically) were determined.
From the analysis results the quantities of Na^+, K^+ and Cl^- eliminated were calculated in […] body weight, and the values thus obtained compared with those of the control animals.
Means values and twice the standard deviation were calculated from the data for the sodium chloride controls, in order to determine the normal range. Then, for the values found with the test substances, the percentage variations from the average in respect of these parameters were calculated and tabulated. In this connection, with the results given in Table 1, the upper limit of the normal range, which is defined as the mean value plus twice the standard deviation, was selected as the reference quantity for the variations. In this way relevant hyper-eliminations could clearly be recognised.
In Table 2, the mean percentage variations in potassium elimination after administration of the compounds in accordance with the invention are compared with the mean value of the potassium elimination in the case of the sodium chloride controls. At the same time the […] ratio is given which provides conclusive evidence of the effective saluretic property. The larger this quotient is, then the more sodium than potassium is eliminated in proportion.

[4] = 6 h, 40 μmol/kg body wt., relative to mean K+ elimination of the controls, read-out: Mean percentage variation in the elimination of potassium
[5] = 6 h, 80 μmol/kg body wt., relative to mean K+ elimination of the controls, read-out: Mean percentage variation in the elimination of potassium
[6] = 40 μmol/kg body wt., deviation from control mean plus twice the standard deviation, 6 h urine, read-out: Mean percentage variation in the elimination of Chloride
[7] = 40 μmol/kg body wt., deviation from control mean plus twice the standard deviation, 6 h urine, read-out: Mean percentage variation in the elimination of H2O
[8] = 40 μmol/kg body wt., deviation from control mean plus twice the standard deviation, 6 h urine, read-out: Mean percentage variation in the elimination of Sodium
[9] = 80 μmol/kg body wt., deviation from control mean plus twice the standard deviation, 6 h urine, read-out: Mean percentage variation in the elimination of Chloride
[10] = 80 μmol/kg body wt., deviation from control mean plus twice the standard deviation, 6 h urine, read-out: Mean percentage variation in the elimination of H2O
[11] = 80 μmol/kg body wt., deviation from control mean plus twice the standard deviation, 6 h urine, read-out: Mean percentage variation in the elimination of Sodium

SMILES	LD50 [1] [mg/kg]	LD50 [2] [mg/kg]	change in vivo at 40 µmol/kg [3, 4] [%]	change in vivo at 80 µmol/kg [3, 5] [%]	change in vivo at 40 µmol/kg [3, 6] [%]	change in vivo at 40 µmol/kg [3, 7] [%]	change in vivo at 40 µmol/kg [3, 8] [%]	change in vivo at 80 µmol/kg [3, 9] [%]	change in vivo at 80 µmol/kg [3, 10] [%]	change in vivo at 80 µmol/kg [3, 11] [%]	Quotient Na/K ([3]; 40 μmol/kg body wt.)	Quotient Na/K ([3]; 80 μmol/kg body wt.)
N=C(N)NC(=O)c1nc(Cl)c(N)nc1N [N-amidino-3.5-diamino-6-chloropyrazinocarboxamide]	70											
COc1c(C)cc(C(O)(c2cc(C(C)C)c(OC)c(C(C)C)c2)C(C)N2CCCCC2)cc1C (stereo not drawn) [T 2266, 1-(4'-methoxy-3',5'-diisopropylphenyl)-1-(4"-methoxy-3",5"-dimethylphenyl)-2-piperidinopropan-1-ol]		> 3200	-2	4	-13.2	-12.9	-7.7	12.2	19.7	19.4	5.59	6.81
CCOc1c(C(C)C)cc(C(O)(c2ccc(OC)cc2)C(C)N2CCCCC2)cc1C(C)C (stereo not drawn) [T 2310]		520	14.3	-2	8.9	41.3	27.3	36.3	67.9	42.3	6.62	8.64
COc1c(C(C)C)cc(Cl)c(C)c1C(O)(c1ccccc1)C(C)N1CCCC1 (stereo not drawn) [T 2350, 1-(3'-chloro-6'-methoxy-2'-methyl-5'-isopropylphenyl)-1-phenyl-2-pyrriolidino-propan-1-ol]		> 4500	-2	25.5	2.6	24.1	15.5	21.2	49.8	40.5	7.00	6.65
C=CCc1cc2c(cc1C(O)(c1ccc(OC)cc1)C(C)N1CCCCC1)OCO2 (stereo not drawn) [T 2378, 1-(3',4'-methylenedioxy-6'-allylphenyl)-1-(4"-methoxyphenyl)-2-piperidino-propane-1-ol]		1600	11.2	32.7	-5.6	6.7	6.7	-20.4	39.6	45	5.70	6.49
CCOc1ccc(C(O)(c2cc(C(C)C)c(OCC)c(C(C)C)c2)C(C)N2CCCCC2)cc1 (stereo not drawn) [T 2453, 1-(4'-ethoxy-3',5'-diisopropylphenyl)-1-(4"-ethoxyphenyl)-2-piperidino-propan-1-ol]		700	-2		6.9	13.4	7.6	31.2	51.7	62.2	6.52	9.63
COc1ccc(C(O)(c2cc(C(C)(C)C)cc(C)c2OC)C(C)N2CCCCC2)c(OC)c1 (stereo not drawn) [T 2455, 1-(2'-methoxy-3'-methyl-5'-tertiary-butylphenyl)-1-(2",4"-dimethoxyphenyl)-2-piperidino-propan-1-ol]		4550	13.3	-23.5	21.4	39.8	31.3	34.8	62.4	55.8	6.88	12.93
COc1ccc(C(O)(c2cc(C(C)(C)C)cc(C)c2OC)C(C)N2CCCCC2)cc1OC (stereo not drawn) [T 2464, 1-(2'-methoxy-3'-methyl-5'-tertiary-butylphenyl)-1-(3",4"-dimethoxyphenyl)-2-piperidinopropan-1-ol]		> 4550	9.2	-1	30.4	49.8	64.4	38.3	65.9	79	8.94	10.74
COc1ccc(C)cc1C(O)(c1cc(C(C)C)c(OCc2ccccc2)c(C(C)C)c1)C(C)N1CCCCC1 (stereo not drawn) [T 2481, 1-(2'-methoxy-5'-methylphenyl)-1-(4"-benzyloxy-3",5"-diisopropylphenyl)-2-piperidino-propan-1-ol]		3780	-4.1	16.3	-7.5	3	-2.4	20	34.1	43.8	6.04	7.34
COc1c(C)cc(C(O)(c2cc(Cl)cc(C)c2OC)C(C)N(C)C(C)(C)C)cc1C (stereo not drawn) [T 2493, 1-(3'-chloro-6'-methoxy-5'-methylphenyl)-1-(4"-methoxy-3",5"-dimethylphenyl)-2-(N-methyl-tertiary-butylamino)-propan-1-ol]		3610	35.7	34.7	41	59.2	62.7	41.5	64.4	76.8	7.74	7.88
